Data as given in the supplement of paper PMC10307832.

What follows are cell lines tested with COC1=CC=C(C=C1)COC2=C(C=C(C=C2)CC3=CN=C(N=C3N)N)OC [GW-2580] + NC(=O)Nc1cc(-c2cccc(F)c2)sc1C(=O)N[C@H]1CCCNC1 [AZD7762] (partner 0.2 µM) (assay: relative viability (nuclei count vs DMSO), 5 days (fraction); higher = more cells survive). Settings: first compound 2.53 µM.
In short: (§1)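 Values are medians from duplicate plates. Each reflects relative viability, defined as the nuclei count of treated wells over that of vehicle wells. Lung cancer cell lines in 1536-well plates were pin-tool dosed one day after seeding with one drug alone or with a fixed anchor-drug dose plus five library-drug doses (not always all listed) in √10 steps, then fixed, stained and imaged at 4× after 5 days.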
Work on LK-2 yielded a relative viability of 0.269. Cell Line NCI-H2087 has a relative viability of 1.12. For NCI-H1648, the relative viability was 0.778. In the case of H3255, the relative viability is reported as 0.817. LOU-NH91 showed a relative viability of 0.743. ChaGo-K-1 showed a relative viability of 0.839. HCC-44 gave a relative viability of 1.03. NCI-H522 showed a relative viability of 0.873. In the case of HCC-78, the relative viability is reported as 0.564. NCI-H1792 was tested, and the relative viability was 0.63.

Same assay, conditions: first compound 8 µM
NCI-H2342 was tested, and the relative viability was 0.444. With NCI-H727 the relative viability was 0.432. NCI-H1703 gave a relative viability of 0.108. For NCI-H1993, the relative viability was 0.868. For NCI-H838, the relative viability was 0.986. For LCLC-103H, the relative viability was 0.716. NCI-H2126 showed a relative viability of 1.03. EMC-BAC-2 was tested, and the relative viability was 1.01. NCI-H2085 showed a relative viability of 0.919. Cell Line HCC-366 has a relative viability of 0.142. Work on NCI-H1666 yielded a relative viability of 0.826. Work on NCI-H596 yielded a relative viability of 1.14. Work on LK-2 yielded a relative viability of 0.284. NCI-H2087 gave a relative viability of 0.937. Cell Line NCI-H1648 has a relative viability of 0.583. For H3255, the relative viability was 0.758. Cell Line LOU-NH91 has a relative viability of 0.794. In the case of ChaGo-K-1, the relative viability is reported as 0.878. HCC-44 showed a relative viability of 0.999. NCI-H522 showed a relative viability of 0.872. In the case of HCC-78, the relative viability is reported as 0.589. NCI-H1792 gave a relative viability of 0.697.

Each cell line was assayed with COC1=CC=C(C=C1)COC2=C(C=C(C=C2)CC3=CN=C(N=C3N)N)OC [GW-2580] + COc1cc2c(Oc3ccc(NC(=O)C4(C(=O)Nc5ccc(F)cc5)CC4)cc3F)ccnc2cc1OCCCN1CCOCC1 [Foretinib] (partner 0.25 µM) in the same assay as above. Settings: first compound 0.08 µM.
In short: as §1
NCI-H2342 showed a relative viability of 1.02. NCI-H1623 showed a relative viability of 0.866. Work on NCI-H727 yielded a relative viability of 0.694. NCI-H1650 was tested, and the relative viability was 1.29. For EBC-1, the relative viability was 0.0973. In the case of NCI-H1703, the relative viability is reported as 0.404. NCI-H1993 gave a relative viability of 0.921. Work on SW 1573 yielded a relative viability of 1.02. NCI-H838 gave a relative viability of 1.15. LCLC-103H gave a relative viability of 0.979. NCI-H520 showed a relative viability of 0.804. Cell Line NCI-H2126 has a relative viability of 1.32. EMC-BAC-2 was tested, and the relative viability was 1.13. NCI-H2085 gave a relative viability of 1. Cell Line Calu-6 has a relative viability of 0.866. Cell Line HCC-366 has a relative viability of 1. NCI-H1666 gave a relative viability of 0.928. With NCI-H596 the relative viability was 0.795. LK-2 showed a relative viability of 1.62. Cell Line NCI-H2087 has a relative viability of 1.21. SK-MES-1 was tested, and the relative viability was 1.03. H3255 gave a relative viability of 0.859. COR-L23 showed a relative viability of 1.12. For COR-L 105, the relative viability was 1.09. IA-LM showed a relative viability of 1.17. For LOU-NH91, the relative viability was 0.957. With ChaGo-K-1 the relative viability was 0.994. A549 gave a relative viability of 1.01. HCC-78 gave a relative viability of 0.524. Work on NCI-H2009 yielded a relative viability of 1.31. NCI-H661 was tested, and the relative viability was 1.08. SK-LU-1 was tested, and the relative viability was 0.823. Work on NCI-H1299 yielded a relative viability of 1.17. NCI-H2228 showed a relative viability of 0.947. Cell Line NCI-H2023 has a relative viability of 0.735. In the case of NCI-H1563, the relative viability is reported as 0.886.

Same assay, conditions: first compound 0.8 µM
With NCI-H2342 the relative viability was 1.05. Work on NCI-H1623 yielded a relative viability of 1.01. NCI-H727 was tested, and the relative viability was 1.05. NCI-H1650 showed a relative viability of 1.43. For EBC-1, the relative viability was 0.114. NCI-H1703 showed a relative viability of 0.378. Work on NCI-H1993 yielded a relative viability of 0.765.
